# Measured values from patent publication US7524853B2 (Solvay Pharmaceuticals B.V., priority 2003, dated 2009).
# How the values were obtained:
# Assay type in all cases: cell-based
# [1] = molecular target: T1, 17β-hydroxysteroid dehydrogenase type 1 (17β-HSD type 1) (Homo sapiens, UniProt P14061); test: Inhibition of 17β-HSD type 1 in MCF-7 cells stably expressing the isoenzyme (tritium labeled estrone conversion, HPLC); settings: MCF7, MCF-7 cells expressing 17β-HSD type 1, 2 nM tritium labeled estrone; for inhibition at 1 µM: 1 μM test compound, read-out: % Inhibition HSD1 1 μM; for inhibition at 10 µM: 10 μM test compound, read-out: % Inhibition HSD1 10 μM
# T1 construct: expressed in transfected cells; host or cells: MCF-7
# T1 sequence (P14061 1-328): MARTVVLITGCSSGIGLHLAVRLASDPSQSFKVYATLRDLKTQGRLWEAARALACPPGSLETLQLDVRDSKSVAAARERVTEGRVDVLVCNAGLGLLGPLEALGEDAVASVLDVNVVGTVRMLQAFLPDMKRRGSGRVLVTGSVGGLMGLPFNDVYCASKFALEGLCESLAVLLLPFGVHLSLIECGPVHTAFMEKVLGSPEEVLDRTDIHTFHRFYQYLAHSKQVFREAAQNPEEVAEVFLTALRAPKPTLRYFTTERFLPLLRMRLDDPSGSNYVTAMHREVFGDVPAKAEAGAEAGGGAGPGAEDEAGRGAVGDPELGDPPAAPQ
# Method in brief: (§1)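 Compounds are tested at two concentrations on MCF-7 cells carrying a single 17β-HSD isoenzyme, with 2 nM tritiated estrone, estradiol or androstenedione as type 1, 2 or 3 substrate. Percent inhibition reflects lower conversion relative to a compound-free control.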
# [2] = molecular target: T2, 17β-hydroxysteroid dehydrogenase type 3 (17β-HSD type 3) (Homo sapiens, UniProt P37058); test: Inhibition of 17β-HSD type 3 in MCF-7 cells stably expressing the isoenzyme (tritium labeled androstenedione conversion, HPLC); settings: MCF7, MCF-7 cells expressing 17β-HSD type 3, 2 nM tritium labeled androstenedione; for inhibition at 1 µM: 1 μM test compound, read-out: % Inhibition HSD3 1 μM; for inhibition at 10 µM: 10 μM test compound, read-out: % Inhibition HSD3 10 μM
# T2 construct: expressed in transfected cells; host or cells: MCF-7
# T2 sequence (P37058 1-310): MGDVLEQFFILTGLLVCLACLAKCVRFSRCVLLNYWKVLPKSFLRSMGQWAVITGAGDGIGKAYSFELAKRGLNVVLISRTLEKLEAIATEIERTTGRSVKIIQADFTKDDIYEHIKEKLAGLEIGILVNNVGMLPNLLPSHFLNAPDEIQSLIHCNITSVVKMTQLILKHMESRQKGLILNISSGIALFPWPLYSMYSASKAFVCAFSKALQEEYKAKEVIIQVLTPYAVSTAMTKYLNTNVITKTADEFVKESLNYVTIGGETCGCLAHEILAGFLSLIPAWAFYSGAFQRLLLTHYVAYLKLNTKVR
# Method in brief: as §1
# [3] = molecular target: T3, 17β-hydroxysteroid dehydrogenase type 2 (17β-HSD type 2) (Homo sapiens, UniProt P37059); test: Inhibition of 17β-HSD type 2 in MCF-7 cells stably expressing the isoenzyme (tritium labeled estradiol conversion, HPLC); settings: MCF7, MCF-7 cells expressing 17β-HSD type 2, 2 nM tritium labeled estradiol; for inhibition at 1 µM: 1 μM test compound, read-out: % Inhibition HSD2 1 μM; for inhibition at 10 µM: 10 μM test compound, read-out: % Inhibition HSD2 10 μM
# T3 construct: expressed in transfected cells; host or cells: MCF-7
# T3 sequence (P37059 1-387): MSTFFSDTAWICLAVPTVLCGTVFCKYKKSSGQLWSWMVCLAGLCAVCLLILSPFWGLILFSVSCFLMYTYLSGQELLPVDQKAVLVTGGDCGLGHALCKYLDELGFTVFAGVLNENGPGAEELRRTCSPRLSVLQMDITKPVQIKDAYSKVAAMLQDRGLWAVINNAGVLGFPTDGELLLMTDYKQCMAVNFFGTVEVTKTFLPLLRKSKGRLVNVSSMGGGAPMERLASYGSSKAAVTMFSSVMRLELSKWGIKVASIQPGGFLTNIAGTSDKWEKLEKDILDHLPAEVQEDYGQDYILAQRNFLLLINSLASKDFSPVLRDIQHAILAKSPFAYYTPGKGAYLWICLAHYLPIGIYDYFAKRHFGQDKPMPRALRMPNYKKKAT
# Method in brief: as §1
SMILES,inhibition at 1 µM [1],inhibition at 10 µM [1],inhibition at 1 µM [2],inhibition at 10 µM [2],inhibition at 1 µM [3],inhibition at 10 µM [3]
"CCCc1nc2sc3c(c2c(=O)n1Cc1ccc(Br)o1)CCC(Br)C3=O (stereo not drawn) [No. 103, 7-Bromo-3-(5-bromofuran-2-ylmethyl)-2-propyl-6,7-dihydro-3H,5H-benzo[4,5]thieno[2,3-d]pyrimidine-4,8-dione]",16.2%,70.6%,-7.7%,51.8%,30.7%,49.7%
"CCCc1nc2sc3c(c2c(=O)n1Cc1ccc(Br)o1)CCC(Br)(Br)C3=O [No. 104, 7,7-Dibromo-3-(5-bromofuran-2-ylmethyl)-2-propyl-6,7-dihydro-3H,5H-benzo[4,5]thieno[2,3-d]pyrimidine-4,8-dione]",20.2%,42.6%,-5%,51.4%,26.6%,47.9%
"CCCc1nc2sc3c(O)cccc3c2c(=O)n1Cc1ccc(Br)o1 [No. 105, 3-(5-Bromofuran-2-ylmethyl)-8-hydroxy-2-propyl-3H-benzo[4,5]thieno[2,3-d]pyrimidin-4-one]",29.8%,61.2%,17.7%,67.3%,50.7%,85.9%
"CCCc1nc2sc3c(OC(C)=O)cccc3c2c(=O)n1Cc1ccc(Br)o1 [No. 106, Acetic acid 3-(5-bromofuran-2-ylmethyl)-4-oxo-2-propyl-3,4-dihydro-benzo[4,5]thieno[2,3-d]pyrimidin-8-yl ester]",28.8%,72.5%,8.1%,71.1%,50%,86.2%
"CCCc1nc2sc3c(O)c(Br)ccc3c2c(=O)n1Cc1ccc(Br)o1 [No. 107, 7-Bromo-3-(5-bromofuran-2-ylmethyl)-8-hydroxy-2-propyl-3H-benzo[4,5]thieno[2,3-d]pyrimidin-4-one]",-14.2%,24.7%,3.2%,44.3%,25.4%,45.7%
"COCCn1c(-c2cc(OC)c(OC)c(OC)c2)nc2sc3c(c2c1=O)CCCC3 [No. 108, 3-(2-Methoxyethyl)-2-(3,4,5-trimethoxyphenyl)-5,6,7,8-tetrahydro-3H-benzo[4,5]thieno[2,3-d]pyrimidin-4-one]",5.2%,11%,0.8%,9.8%,9.6%,7.4%
"COCCn1c(-c2cc(OC)c(OC)c(OC)c2)nc2sc3c(c2c1=O)CCCC3=O [No. 109, 3-(2-Methoxyethyl)-2-(3,4,5-trimethoxyphenyl)-6,7-dihydro-3H,5H-benzo[4,5]thieno[2,3-d]pyrimidine-4,8-dione]",-0.2%,20.7%,0.6%,11.6%,6%,9.7%
"COCCn1c(-c2cc(OC)c(OC)c(OC)c2Br)nc2sc3c(c2c1=O)CCC(Br)C3=O (stereo not drawn) [No. 111, 7-Bromo-2-(2-bromo-3,4,5-trimethoxyphenyl)-3-(2-methoxyethyl)-6,7-dihydro-3H,5H-benzo[4,5]thieno[2,3-d]pyrimidine-4,8-dione]",23.8%,56.9%,7.3%,41.5%,24.7%,48.7%
"COCCn1c(-c2cc(OC)c(OC)c(OC)c2Br)nc2sc3c(O)cccc3c2c1=O [No. 112, 2-(2-Bromo-3,4,5-trimethoxyphenyl)-8-hydroxy-3-(2-methoxyethyl)-3H-benzo[4,5]thieno[2,3-d]pyrimidin-4-one]",28.3%,54.4%,7%,49.4%,14.6%,46.3%
"COc1cc(-c2nc3sc4c(c3c(=O)n2CC(C)C)CCCC4)cc(OC)c1OC [No. 113, 3-Isobutyl-2-(3,4,5-trimethoxyphenyl)-5,6,7,8-tetrahydro-3H-benzo[4,5]thieno[2,3-d]pyrimidin-4-one]",22.2%,57.6%,2.7%,48.9%,8.2%,7.7%
"COc1cc(-c2nc3sc4c(c3c(=O)n2CC(C)C)CCCC4=O)cc(OC)c1OC [No. 114, 3-Isobutyl-2-(3,4,5-trimethoxyphenyl)-6,7-dihydro-3H,5H-benzo[4,5]thieno[2,3-d]pyrimidine-4,8-dione]",15.5%,55.9%,2.4%,32%,15.5%,25.3%
"COc1cc(-c2nc3sc4c(c3c(=O)n2CC(C)C)CCC(Br)C4=O)cc(OC)c1OC (stereo not drawn) [No. 115, 7-Bromo-3-isobutyl-2-(3,4,5-trimethoxyphenyl)-6,7-dihydro-3H,5H-benzo[4,5]thieno[2,3-d]pyrimidine-4,8-dione]",22.9%,70.3%,7.6%,20.7%,18.7%,19.5%
"COc1cc(-c2nc3sc4c(c3c(=O)n2CC(C)C)CCC(Br)C4=O)c(Br)c(OC)c1OC (stereo not drawn) [No. 116, 7-Bromo-2-(2-bromo-3,4,5-trimethoxypheny1)-3-isobutyl-6,7-dihydro-3H,5H-benzo[4,5]thieno[2,3-d]pyrimidine-4,8-dione]",12.5%,41.4%,8.1%,21.2%,28%,26.1%
"COc1cc(-c2nc3sc4c(O)cccc4c3c(=O)n2CC(C)C)c(Br)c(OC)c1OC [No. 117, 8-Hydroxy-3-isobutyl-2-(2-bromo-3,4,5-trimethoxyphenyl)-3H-benzo[4,5]thieno[2,3-d]pyrimidin-4-one]",39.3%,62.2%,19.7%,44.1%,19.7%,20.7%
"COc1cc(-c2nc3sc4c(OC(C)=O)cccc4c3c(=O)n2CC(C)C)c(Br)c(OC)c1OC [No. 118, Acetic acid 2-(2-bromo-3,4,5-trimethoxyphenyl)-3-isobutyl-4-oxo-3,4-dihydro-benzo[4,5]-thieno[2,3-d]pyrimidin-8-yl ester]",31%,51.5%,10.8%,24.4%,23.6%,24.4%
"COc1cc(-c2nc3sc4c(c3c(=O)n2Cc2ccco2)CCCC4)cc(OC)c1OC [No. 119, 3-Furan-2-ylmethyl-2-(3,4,5-trimethoxylphenyl)-5,6,7,8-tetrahydro-3H-benzo[4,5]thieno[2,3-d]pyrimidin-4-one]",9.6%,27.9%,2.3%,19.1%,25.1%,30.1%
"COc1cc(-c2nc3sc4c(c3c(=O)n2Cc2ccco2)CCCC4=O)cc(OC)c1OC [No. 120, 3-Furan-2-ylmethyl-2-(3,4,5-trimethoxylphenyl)-6,7-dihydro-3H,5H-benzo[4,5]thieno[2,3-d]pyrimidine-4,8-dione]",17.6%,52.1%,12.4%,38.4%,19.9%,35.4%
